Experimental data reported in patent US20250002470A1, “NITROGEN-CONTAINING COMPOUND, PREPARATION METHOD THEREFOR AND APPLICATION THEREOF” (ZHEJIANG AIXPLORER BIOTECH CO., LTD., priority 2021, published 2025).

System: IL-1β
Assay: IL-1β cytokine in LPS-induced sepsis mouse model
Assay type: in vivo, C57BL/6J mice
Conditions: for IL-1β: given 30 minutes before LPS (10 mg/kg i.p.), serum 2 hours after LPS
Protocol: The purpose of this study was to investigate and evaluate the inhibitory effect of the test compound on […] and IL-18 cytokine production in a mouse model of lipopolysaccharide (LPS)-induced sepsis.
6-8 weeks female C57BL/6J mice, randomized, 5 animals in the Naïve group, and the rest of the groups (vehicle group, 15 mg/kg group with embodiment 33 compound, 50 mg/kg group with embodiment 33 compound and 150 mg/kg group with embodiment 33 compound, wherein 15 mg/kg, 50 mg/kg and 150 mg/kg is the dosage of embodiment 33, mg/kg is referred to as mpk) 10 animals per group. Among them, the Naïve group was not stimulated with LPS, and the 10 mice in each group were intraperitoneally injected with LPS (10 mg/kg) to induce sepsis model in the mouse. The vehicle (corresponding to the vehicle group) and the test compound (corresponding to the 15mpk group of Example 33, the 50mpk group of Example 33 and the 150mpk group of Example 33 respectively) were administered 30 minutes before LPS stimulation. 2 hours after LPS stimulation, the mice were euthanized, and whole blood was collected from the heart and placed in EP tubes, left to stand at room temperature for 1 hour, and centrifuged at 8000 rpm for 10 minutes to collect serum for measurement of cytokines IL-10 and IL-18.
For the standard pellet in the IL-10 cytokine CBA kit, put the IL-10 standard pellet into a 15 mL centrifuge tube, add 4 mL of Assay Diluent, and let it stand at room temperature for more than 15 minutes; • After the supernatant sample is melted and mixed evenly, the supernatant is diluted 2 times; • Preparation of standard reagent: Add the diluent Assay Diluent in advance to the 96-well V-shaped bottom plate, 100 μL/well. Add 200 μL of the standard that has been left to stand for 15 minutes into the well plate, and add 100 μL each time to the diluent in sequence. Gradually dilute the standard to 11 gradients (double dilution each time). The 12th hole is used as Blank, 200 μL/well; • Preparation of Capture beads reagent: Take the capture beads in the IL-10 cytokine CBA kit and vortex for 30 seconds. Prepare the Beads as follows: 60 μL IL-10 beads+2440 μL capture beads diluent (60 wells); mix evenly, 50 μL/well, add it to a […] V-bottom plate; shake at 200 g for 5 minutes, and incubate at room temperature for 1 hour; • Preparation of Detection reagent: Take the PE Detection from the IL-10 cytokine CBA kit and vortex for 30 seconds. Prepare the PE as follows: 60 μL IL-10 Detection+2440 μL PE detection diluent; mix evenly. […]

Which IL-1β (15 mpk) does the source give for `Cc1nc(N[C@@H]2CCCC[C@H]2O)nnc1-c1ccc(C(F)(F)F)cc1O` [Embodiment 33] here?
The IL-1β was 310.1 ± 32.88.

What about the IL-1β (50 mpk) of the same compound?
The IL-1β was 213.4 ± 25.66.

What about the IL-1β (150 mpk) of the same compound?
The IL-1β was 19.36 ± 5.166.

What about the “inhibitory effect on IL-1β compared with the Vehicle group” value (three dose groups (15, 50, 150 mg/kg)) of the same compound?
The value was “significant inhibitory effect”.
